Among the data in patent US8680159B2, “Bradykinin 1 receptor modulating compounds” (Gruenenthal GmbH, priority 2010, dated 2014) are inhibition values, retold here.

Structures are written as SMILES.

For this experiment, the target named is T1, human B1R receptor (CHO K1 cells stably transfected with the human B1R gene) (Homo sapiens, UniProt P46663).
T1 construct: expressed in transfected cells; host or cells: CHO K1 cells (Chinese hamster ovary), stably transfected
T1 sequence (P46663 1-353): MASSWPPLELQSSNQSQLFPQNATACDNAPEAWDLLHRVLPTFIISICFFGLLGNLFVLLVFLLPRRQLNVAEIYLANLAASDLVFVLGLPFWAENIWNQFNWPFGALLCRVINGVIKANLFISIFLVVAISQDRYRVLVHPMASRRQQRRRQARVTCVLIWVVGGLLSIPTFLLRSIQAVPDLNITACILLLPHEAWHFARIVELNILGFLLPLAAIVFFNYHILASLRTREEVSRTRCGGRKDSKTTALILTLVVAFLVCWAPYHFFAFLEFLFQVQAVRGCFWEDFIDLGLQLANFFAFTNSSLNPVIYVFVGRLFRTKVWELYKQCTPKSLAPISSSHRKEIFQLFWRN
As to the kind of experiment: Functional study on the bradykinin receptor 1 (B1R), Ca2+ fluorescence (Fluo-4) FLIPR/Novostar assay, hB1R cells. Format: cell-based. The settings on record: CHO-K1, read-out: % Inhibition (h-B1R) at 10 μM. The method, then: The agonistic or antagonistic action of substances can be quantified on the bradykinin receptor 1 (B1R) of the species human and rat using ectopically expressing cell lines (CHO K1 cells) and with the aid of a Ca^2+-sensitive dye (Fluo-4) using a fluorescent imaging plate reader (FLIPR). The indication in % activation is based on the Ca^2+ signal after addition of Lys-Des-Arg^9-bradykinin (0.5 nM) or Des-Arg^9-bradykinin (100 nM). Antagonists lead to suppression of the Ca^2+ influx after the addition of the agonist. % Inhibition compared with the maximum achievable inhibition is indicated.
The agonistic or antagonistic action of substances can be determined on the bradykinin receptor 1 (B1R) of the species human and rat using the following assay. According to this assay, the increase in intracellular Ca^2+ following administration of a B1R agonist is quantified with the aid of a Ca^2+-sensitive dye (Fluo-4 type, Molecular Probes Europe BV, Leiden, Netherlands) using a Fluorescent Imaging Plate Reader (FLIPR, Molecular Devices, Sunnyvale, USA) and/or using a Novostar (BMG Labtech GmbH, Offenburg, Germany).
Chinese hamster ovary cells (CHO K1 cells) which have been stably transfected with the human B1R gene (hB1R cells) or with the B1R gene of the rat (rB1R cells) are used. For functional studies, the cells are plated out on black 96-well plates having a clear base (BD Biosciences, Heidelberg, Germany or Greiner, Frickenhausen, Germany) in a density of 20,000-35,000 cells/well. The cells are left overnight at 37° C. and with 5% CO2 in culture medium (hB1R cells: Nutrient Mixture Ham's F12, Gibco Invitrogen GmbH, Karlsruhe, Germany or DMEM, Sigma-Aldrich, Taufkirchen, Germany; rB1R cells: D-MEM/F12, Gibco Invitrogen GmbH, Karlsruhe, Germany), with 10 vol. % FBS (fetal bovine serum, Gibco Invitrogen GmbH, Karlsruhe, Germany or PAN Biotech GmbH, Aidenbach, Germany). On the following day, the cells are loaded for 60 minutes at 37° C. with 2.13 μM Fluo-4 (Molecular Probes Europe BV, Leiden, Netherlands) in HBSS buffer (Hank's buffered saline solution, Gibco Invitrogen GmbH, Karlsruhe, Germany) […] (Sigma-Aldrich, Taufkirchen, Germany) and 10 mM HEPES (Sigma-Aldrich, Taufkirchen, Germany). The plates are then washed twice with HBSS buffer, and HBSS buffer additionally containing 0.1% BSA (bovine serum albumin; Sigma-Aldrich, Taufkirchen, Germany), 5.6 mM glucose and 0.05% gelatin (Merck KGaA, Darmstadt, Germany) is added to the plates. After incubation for a further 20 minutes at room temperature, the plates are inserted into the FLIPR or Novostar for Ca^2+ measurement. Alternatively, washing is carried out with buffer A (15 mM HEPES, 80 mM NaCl, 5 mM KCl, 1.2 mM CaCl2, 0.7 mM MgSO4, 2 g/l glucose, 2.5 mM probenecid) followed by loading with buffer A with added 2.5 μM Fluo-4 and 0.025% Pluronic F127 (Sigma-Aldrich, Taufkirchen, Germany). The cells are then washed twice with buffer A and incubated for 30 minutes at room temperature with buffer A additionally containing 0.05% BSA and 0.05% gelatin and are then inserted into the FLIPR or Novostar for Ca^2+ measurement. The Ca^2+-dependent fluorescence is measured before and after the addition of substances (λex=488 nm, λem=540 nm). Quantification is carried out by measuring the highest fluorescence intensity (FC, fluorescence counts) over time.
The FLIPR protocol consists of 2 substance additions, which are pipetted in the FLIPR. In the case of measurements using the Novostar, only the second substance addition is pipetted in the device. Both devices measure the fluorescence intensity over time. Test substances (10 μM) are first pipetted onto the cells and the intracellular Ca^2+ increase is compared with the control (hB1R: Lys-Des-Arg^9-bradykinin>=50 nM; rB1R: Des-Arg^9-bradykinin>=1 μM). This gives the % activation, based on the Ca^2+ signal after addition of Lys-Des-Arg^9-bradykinin (>=50 nM) or Des-Arg^9-bradykinin (>=1 μM). […]
Turning to `CN(C(=O)c1ccc2c(c1)C(NC(=O)C(C)(C)c1ccccc1Cl)CC2(C)C)C1CCN(c2ccncc2)CC1` (stereo not drawn) [CC_H-95, 3-[[2-(2-Chlorophenyl)-2-methyl-propanoyl]amino]-N,1,1-trimethyl-N-(1-pyridin-4-yl-piperidin-4-yl)-2,3-dihydro-indene-5-carboxylic acid amide], the inhibition at 10 µM worked out at 100%. The same measure for `Cc1cc(N2CCC(N(C)C(=O)c3ccc4c(c3)C(NC(=O)c3cccc(Cl)c3Cl)CC4)CC2)cc(C)n1` (stereo not drawn) [CC_H-96, 3-[(2,3-Dichloro-benzoyl)amino]-N-[1-(2,6-dimethyl-pyridin-4-yl)-piperidin-4-yl]-N-methyl-2,3-dihydro-1H-indene-5-carboxylic acid amide]: 100%; for `CN(C(=O)c1ccc2c(c1)C(NC(=O)C(C)(C)c1ccccc1Cl)CCO2)C1CCN(c2ccncc2)CC1` (stereo not drawn) [CC_H-97, 4-[[2-(2-Chlorophenyl)-2-methyl-propanoyl]amino]-N-methyl-N-(1-pyridin-4-yl-piperidin-4-yl)-3,4-dihydro-2H-chromene-6-carboxylic acid amide]: 92%. The same measure for `CN(C(=O)c1ccc2c(c1)C(NC(=O)C(C)(C)c1ccccc1Cl)CC2)C1CCN(c2ccc3cnccc3c2)CC1` (stereo not drawn) [CC_H-98, 3-[[2-(2-Chlorophenyl)-2-methyl-propanoyl]amino]-N-(1-isoquinolin-6-yl-piperidin-4-yl)-N-methyl-2,3-dihydro-1H-indene-5-carboxylic acid amide]: 92%. For `Cc1cc(N2CCC(N(C)C(=O)c3ccc4c(c3)C(NC(=O)c3ccccc3Cl)CC4)CC2)cc(C)n1` (stereo not drawn) [CC_H-99, 3-[(2-Chloro-benzoyl)amino]-N-[1-(2,6-dimethyl-pyridin-4-yl)-piperidin-4-yl]-N-methyl-2,3-dihydro-1H-indene-5-carboxylic acid amide] the value was 100%.

For the molecule `CN(C(=O)c1ccc2c(c1)CCC2NC(=O)C(C)(C)c1ccccc1Cl)C1CCN(c2ccncc2)CC1` (stereo not drawn) [CC_H-100, 1-[[2-(2-Chlorophenyl)-2-methyl-propanoyl]amino]-N-methyl-N-(1-pyridin-4-yl-piperidin-4-yl)-2,3-dihydro-1H-indene-5-carboxylic acid amide], the inhibition at 10 µM is 77%. For `O=C(CCC1CCCC1)NC1CCc2ccc(C(=O)NCCC3CCN(c4ccncc4)CC3)cc21` (stereo not drawn) [CC_H-101, 3-(3-Cyclopentyl-propanoylamino)-N-[2-(1-pyridin-4-yl-piperidin-4-yl)-ethyl]-2,3-dihydro-1H-indene-5-carboxylic acid amide] the value was 100%.

With `CN(C(=O)c1ccc2c(c1)C(NC(=O)C(C)(C)c1ccccc1Cl)CCC2)C1CCN(c2ccncc2)CC1` (stereo not drawn) [CC_H-102, 8-[[2-(2-Chlorophenyl)-2-methyl-propanoyl]amino]-N-methyl-N-(1-pyridin-4-yl-piperidin-4-yl)-5,6,7,8-tetrahydro-naphthalene-2-carboxylic acid amide], the inhibition at 10 µM came out at 99%. Turning to `CC(C)(C(=O)NC1CCc2ccc(C(=O)NCCC3CCN(c4ccncc4)CC3)cc21)c1ccccc1Cl` (stereo not drawn) [CC_H-103, 3-[[2-(2-Chlorophenyl)-2-methyl-propanoyl]amino]-N-[2-(1-pyridin-4-yl-piperidin-4-yl)-ethyl]-2,3-dihydro-1H-indene-5-carboxylic acid amide], the inhibition at 10 µM turned out to be 89%. For `CN(C(=O)NC1CCc2ccc(C(=O)N(C)C3CCN(c4ccc5cnccc5c4)CC3)cc21)c1ccccc1Cl` (stereo not drawn) [CC_H-104, 3-[[(2-Chlorophenyl)-methyl-carbamoyl]amino]-N-(1-isoquinolin-6-yl-piperidin-4-yl)-N-methyl-2,3-dihydro-1H-indene-5-carboxylic acid amide] the value was 100%. Turning to `Cc1cccc(C)c1C(=O)NC1CCc2ccc(C(=O)NCCC3CCN(c4ccncc4)CC3)cc21` (stereo not drawn) [CC_H-105, 3-[(2,6-Dimethyl-benzoyl)amino]-N-[2-(1-pyridin-4-yl-piperidin-4-yl)-ethyl]-2,3-dihydro-1H-indene-5-carboxylic acid amide], the inhibition at 10 µM amounted to 90%.

Regarding `CN(C(=O)c1ccc2c(c1)C(N(C)C(=O)c1ccccc1Cl)CC2)C1CCN(c2ccncc2)CC1` (stereo not drawn) [CC_H-106, 3-[(2-Chloro-benzoyl)-methyl-amino]-N-methyl-N-(1-pyridin-4-yl-piperidin-4-yl)-2,3-dihydro-1H-indene-5-carboxylic acid amide], the inhibition at 10 µM was determined as 100%. For `Cc1cc(N2CCC(N(C)C(=O)c3ccc4c(c3)C(NC(=O)c3c(Cl)cccc3C(F)(F)F)CC4)CC2)cc(C)n1` (stereo not drawn) [CC_H-107, 3-[[2-Chloro-6-(trifluoromethyl)-benzoyl]amino]-N-[1-(2,6-dimethyl-pyridin-4-yl)-piperidin-4-yl]-N-methyl-2,3-dihydro-1H-indene-5-carboxylic acid amide] the value was 97%; for `Cc1cc(N2CCC(N(C)C(=O)c3ccc4c(c3)C(N(C)C(=O)c3c(Cl)cccc3C(F)(F)F)CC4)CC2)cc(C)n1` (stereo not drawn) [CC_H-108, 3-[[2-Chloro-6-(trifluoromethyl)-benzoyl]-methyl-amino]-N-[1-(2,6-dimethyl-pyridin-4-yl)-piperidin-4-yl]-N-methyl-2,3-dihydro-1H-indene-5-carboxylic acid amide], 91%; for `Cc1cc(N2CCC(N(C)C(=O)c3ccc4c(c3)C(NC(=O)c3sccc3Cl)CC4)CC2)cc(C)n1` (stereo not drawn) [CC_H-109, 3-Chloro-N-[6-[[1-(2,6-dimethyl-pyridin-4-yl)-piperidin-4-yl]-methyl-carbamoyl]-2,3-dihydro-1H-inden-1-yl]-thiophene-2-carboxylic acid amide], 100%. For `Cc1cc(N2CCC(N(C)C(=O)c3ccc4c(c3)C(NS(=O)(=O)c3c(Cl)cccc3C(F)(F)F)CC4)CC2)cc(C)n1` (stereo not drawn) [CC_H-111, 3-[[[2-Chloro-6-(trifluoromethyl)-phenyl]sulfonyl]amino]-N-[1-(2,6-dimethyl-pyridin-4-yl)-piperidin-4-yl]-N-methyl-2,3-dihydro-1H-indene-5-carboxylic acid amide] the value was 100%; for `Cc1cc(N2CCC(N(C)C(=O)c3ccc4c(c3)C(NC(=O)c3cnccc3C(F)(F)F)CC4)CC2)cc(C)n1` (stereo not drawn) [CC_H-112, N-[6-[[1-(2,6-Dimethyl-pyridin-4-yl)-piperidin-4-yl]-methyl-carbamoyl]-2,3-dihydro-1H-inden-1-yl]-4-(trifluoromethyl)-pyridine-3-carboxylic acid amide], 100%.

Regarding `Cc1cc(N2CCC(N(C)C(=O)c3ccc4c(c3)C(NC(=O)c3c(C)cccc3C)CC4)CC2)cc(C)n1` (stereo not drawn) [CC_H-115, 3-[(2,6-Dimethyl-benzoyl)amino]-N-[1-(2,6-dimethyl-pyridin-4-yl)-piperidin-4-yl]-N-methyl-2,3-dihydro-1H-indene-5-carboxylic acid amide], the inhibition at 10 µM worked out at 99%.

Usually inhibition stands for the relative decrease from the control value, in per cent.
